Assay results from US8772307B2, “Substituted spiro compounds and their use for producing pain-relief medicaments” (Gruenenthal GmbH, priority 2005, dated 2014).

Experiments:
[1] = molecular target: T1, rat-species vanilloid receptor 1 (VR1/TRPV1) (Rattus norvegicus, UniProt O35433); experiment: Functional testing on vanilloid receptor 1 (VR1/TRPV1): FLIPR Ca2+ inflow assay in rat dorsal root ganglia cells (% activation / % inhibition vs capsaicin); type: cell-based; conditions: for inhibition at 10 µM: inhibition compared to 10 μM CP (capsaicin); for activation at 10 µM: stimulation compared to 10 μM CP (capsaicin); for IC50: capsaicin (CAP) stimulus, average
T1 construct: endogenous in cells; host or cells: primary cells dissociated from rat dorsal root ganglia (DRG)
T1 sequence (O35433 whole entry): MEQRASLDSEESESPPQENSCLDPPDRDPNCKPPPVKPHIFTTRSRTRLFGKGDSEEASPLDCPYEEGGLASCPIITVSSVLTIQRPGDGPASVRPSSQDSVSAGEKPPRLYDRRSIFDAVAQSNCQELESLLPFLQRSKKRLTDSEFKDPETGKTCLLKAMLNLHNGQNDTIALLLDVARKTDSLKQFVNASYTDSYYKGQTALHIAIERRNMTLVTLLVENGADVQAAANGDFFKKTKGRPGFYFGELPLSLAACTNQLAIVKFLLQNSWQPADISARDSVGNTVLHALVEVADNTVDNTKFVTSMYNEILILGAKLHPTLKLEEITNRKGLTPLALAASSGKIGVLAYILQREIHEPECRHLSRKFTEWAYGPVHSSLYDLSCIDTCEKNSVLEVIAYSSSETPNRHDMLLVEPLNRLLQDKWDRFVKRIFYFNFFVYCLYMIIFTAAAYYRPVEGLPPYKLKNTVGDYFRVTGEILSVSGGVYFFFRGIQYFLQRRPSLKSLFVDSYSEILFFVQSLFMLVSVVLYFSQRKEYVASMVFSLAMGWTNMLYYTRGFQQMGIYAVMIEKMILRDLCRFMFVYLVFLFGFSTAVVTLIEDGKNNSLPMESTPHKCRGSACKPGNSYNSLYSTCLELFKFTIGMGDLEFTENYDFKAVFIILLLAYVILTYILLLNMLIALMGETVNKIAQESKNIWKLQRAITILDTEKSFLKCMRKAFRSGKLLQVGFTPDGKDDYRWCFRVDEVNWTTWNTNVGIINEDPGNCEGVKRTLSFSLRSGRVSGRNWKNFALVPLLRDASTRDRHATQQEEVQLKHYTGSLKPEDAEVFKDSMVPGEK
Summary of the method: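 Rat dorsal root ganglion cells, dissociated with collagenase and trypsin, were plated at 3×10^5/mL on laminin-coated plates in NGF-containing HAMS F12 and cultured 2-3 days at 37° C. Ca2+ inflow read by Fluo-4 fluorescence on FLIPR; test compounds at 10 μM referenced to 10 μM capsaicin.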

vanilloid receptor (VR1) = molecular target: T2, vanilloid receptor (VR1) (Homo sapiens, UniProt Q8NER1); experiment: Functional testing on vanilloid receptor (VR1): FLIPR Ca2+ inflow assay in CHO K1 cells stably transfected with the VR1 gene; type: cell-based; conditions: for inhibition at 10 µM: CHO-K1, inhibition compared to 10 μM CP (capsaicin); for activation at 10 µM: CHO-K1, stimulation compared to 10 μM CP (capsaicin)
T2 construct: expressed in transfected cells; host or cells: CHO K1 cells (ECACC), stably transfected
T2 sequence (Q8NER1 whole entry): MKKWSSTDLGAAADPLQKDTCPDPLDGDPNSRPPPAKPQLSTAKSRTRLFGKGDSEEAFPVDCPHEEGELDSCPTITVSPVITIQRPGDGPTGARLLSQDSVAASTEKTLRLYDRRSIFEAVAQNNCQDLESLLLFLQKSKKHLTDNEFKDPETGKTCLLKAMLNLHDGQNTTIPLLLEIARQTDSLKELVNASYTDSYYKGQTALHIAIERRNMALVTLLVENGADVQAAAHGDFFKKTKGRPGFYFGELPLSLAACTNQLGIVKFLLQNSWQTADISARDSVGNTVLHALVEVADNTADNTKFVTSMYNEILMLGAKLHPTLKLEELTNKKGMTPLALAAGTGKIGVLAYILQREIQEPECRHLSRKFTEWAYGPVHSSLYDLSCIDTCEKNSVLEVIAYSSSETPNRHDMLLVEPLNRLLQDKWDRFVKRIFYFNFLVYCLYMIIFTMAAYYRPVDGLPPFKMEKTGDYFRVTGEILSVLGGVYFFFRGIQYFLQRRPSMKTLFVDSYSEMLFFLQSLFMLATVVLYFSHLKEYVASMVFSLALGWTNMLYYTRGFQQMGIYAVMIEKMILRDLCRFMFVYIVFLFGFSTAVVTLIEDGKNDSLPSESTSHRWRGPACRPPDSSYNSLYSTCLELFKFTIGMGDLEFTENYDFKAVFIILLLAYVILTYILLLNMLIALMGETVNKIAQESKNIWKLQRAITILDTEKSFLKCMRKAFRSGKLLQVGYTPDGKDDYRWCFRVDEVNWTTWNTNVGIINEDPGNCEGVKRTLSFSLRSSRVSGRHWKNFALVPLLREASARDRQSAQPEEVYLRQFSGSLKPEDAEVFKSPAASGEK
Summary of the method: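 CHO K1 cells stably expressing VR1, loaded with Fluo-4 (2 μM, 30 min, 37° C); peak Ca²⁺ fluorescence read on FLIPR. Compound (10 μM) added first, agonism as % of 10 μM capsaicin signal; after 5 min, 100 nM capsaicin added, % inhibition calculated relative to maximal inhibition with 10 μM capsaicin.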

Row | SMILES | inhibition at 10 µM [1] | activation at 10 µM [1] | inhibition at 10 µM (vanilloid receptor (VR1)) | activation at 10 µM (vanilloid receptor (VR1)) | IC50 [1] | IC50 (vanilloid receptor (VR1); capsaicin (CAP) stimulus, average) | melting point
1 | CC1CN(C(=O)Nc2ccc(C(C)(C)C)cc2)CCC12CC(c1ccccc1F)=NO2 (stereo not drawn) [Compound 364, N-(4-tert-butylphenyl)-3-(2-fluorophenyl)-6-methyl-1-oxa-2,8-diazaspiro[4.5]dec-2-ene-8-carboxamide] | 106% | 4% | 50% | -1% |  |  | 
2 | CC(C(=O)N1CCC2(CC1)CC(c1cccc(F)c1)=NO2)c1ccc(NS(C)(=O)=O)c(F)c1 (stereo not drawn) [Compound 366, N-(2-fluoro-4-(1-(3-(3-fluorophenyl)-1-oxa-2,8-diazaspiro[4.5]dec-2-en-8-yl)-1-oxopropan-2-yl)phenyl)methanesulphonamide] | 29% | 0% | -20% | -1% |  |  | 
3 | CC(C)(C)c1ccc(NC(=O)N2CCC3(CC(c4ccccc4)=NO3)C2)cc1 (stereo not drawn) [Compound 371, N-(4-tert-butylphenyl)-3-phenyl-1-oxa-2,7-diazaspiro[4.4]non-2-ene-7-carboxamide] | 99% | 35% | 12% | 1% |  |  | 
4 | COc1cc(C2=NOC3(CCN(C(=O)Nc4ccc(C(C)(C)C)cc4)CC3)C2)ccc1Cl [Compound 378, N-(4-tert-butylphenyl)-3-(4-chloro-3-methoxyphenyl)-1-oxa-2,8-diazaspiro[4.5]dec-2-ene-8-carboxamide] | 99% | 33% | 81% | 42% |  |  | 
5 | CC(C)(C)c1ccc2[nH]c(N3CCC4(CC3)CC(c3ccccc3)=NO4)nc2c1 [Compound 379, 8-(5-tert-butyl-1H-benzimidazol-2-yl)-3-phenyl-1-oxa-2,8-diazaspiro[4.5]dec-2-ene] |  |  |  |  |  |  | 230 to 236 °C

Further lines, results first:

Row | inhibition at 10 µM [1] | activation at 10 µM [1] | inhibition at 10 µM (vanilloid receptor (VR1)) | activation at 10 µM (vanilloid receptor (VR1)) | IC50 [1] | IC50 (vanilloid receptor (VR1); capsaicin (CAP) stimulus, average) | melting point | SMILES
6 | 44% | -1% | 19% | 0% |  |  |  | COc1cccc(C2=NOC3(CCN(C(=O)/C=C/c4ccc(C(F)(F)F)nc4)CC3)C2)c1 [Compound 362, (E)-1-(3-(3-methoxyphenyl)-1-oxa-2,8-diazaspiro[4.5]dec-2-en-8-yl)-3-(6-(trifluoromethyl)pyridin-3-yl)prop-2-en-1-one]
7 | 81% | 0% | 30% | 0% |  |  |  | O=C(C#Cc1ccc(C(F)(F)F)cc1)N1CCC2(CC1)CC(c1ccccc1)=NO2 [Compound 363, 1-(3-phenyl-1-oxa-2,8-diazaspiro[4.5]dec-2-en-8-yl)-3-(4-(trifluoromethyl)phenyl)prop-2-yn-1-one]
8 | 94% | 0% | 74% | -1% |  |  |  | O=C(/C=C/c1ccc(C(F)(F)F)nc1N1CCCCC1)N1CCC2(CC1)CC(c1cccc(F)c1)=NO2 [Compound 365, (E)-1-(3-(3-fluorophenyl)-1-oxa-2,8-diazaspiro[4.5]dec-2-en-8-yl)-3-(2-(piperidin-1-yl)-6-(trifluoromethyl)pyridin-3-yl)prop-2-en-1-one]
9 | 96% | -1% | 93% | 0% |  |  |  | CC1CN(C(=O)/C=C/c2ccc(C(F)(F)F)nc2N2CCCCC2)CCC12CC(c1ccccc1)=NO2 (stereo not drawn) [Compound 367, (E)-1-(6-methyl-3-phenyl-1-oxa-2,8-diazaspiro[4.5]dec-2-en-8-yl)-3-(2-(piperidin-1-yl)-6-(trifluoromethyl)pyridin-3-yl)prop-2-en-1-one]
10 | 83% | 0% | 66% | 0% |  |  |  | CC(C)(C)c1ccc(/C=C/C(=O)N2CCC3(CC2)CC(c2ccccc2)=NO3)c(Br)c1 [Compound 368, (E)-3-(2-bromo-4-tert-butylphenyl)-1-(3-phenyl-1-oxa-2,8-diazaspiro[4.5]dec-2-en-8-yl)prop-2-en-1-one]
11 | 110% | 0% | 19% | -1% | 175 nM | 1070 nM |  | CC1CN(C(=O)Nc2ccc(C(C)(C)C)cc2)CCC12CC(c1ccccc1)=NO2 (stereo not drawn) [Compound 369, N-(4-tert-butylphenyl)-6-methyl-3-phenyl-1-oxa-2,8-diazaspiro[4.5]dec-2-ene-8-carboxamide]
12 | 77% | 1% | 18% | -2% | 59.8 nM |  |  | CC1CN(C(=O)Nc2ccc(C(F)(F)F)cc2)CCC12CC(c1ccccc1)=NO2 (stereo not drawn) [Compound 385, 6-methyl-3-phenyl-N-(4-(trifluoromethyl)phenyl)-1-oxa-2,8-diazaspiro[4.5]dec-2-ene-8-carboxamide]
